ChEMBL document CHEMBL3865826, “Synthesis and biological evaluation of a series of non-hemiacetal ester derivatives of artemisinin” (Eur J Med Chem, 2016)

How the values were obtained:
[1] = Selectivity index, ratio of IC50 for CHO cells to IC50 for chloroquine-sensitive asexual erythrocyte stage form Plasmodium falciparum NF54; format: toxicity, cell-based; details: hamster, read-out: Ratio IC50
[2] = Selectivity index, ratio of IC50 for human UACC62 cells to IC50 for chloroquine-resistant asexual erythrocyte stage form Plasmodium falciparum Dd2; format: functional, UACC-62
UACC-62 = experiment: Selectivity index, ratio of IC50 for human WI38 cells to IC50 for human UACC62 cells; format: functional
[3] = Growth inhibition of human TK10 cells measured after 24 hrs by SRB assay; format: functional, cell-based; details: TK-10, 24 h
[4] = Selectivity index, ratio of IC50 for human TK10 cells to IC50 for chloroquine-resistant asexual erythrocyte stage form Plasmodium falciparum Dd2; format: functional, TK-10
CHO [5] = experiment: Selectivity index, ratio of IC50 for CHO cells to IC50 for human UACC62 cells; format: functional
[6] = Thermal stability of the compound assessed as melting point by thermogravimetric analysis; format: physicochemical
CHO [7] = experiment: Selectivity index, ratio of IC50 for CHO cells to IC50 for human MCF7 cells; format: functional
[8] = Growth inhibition of human UACC62 cells measured after 24 hrs by SRB assay; format: functional, cell-based; details: UACC-62, 24 h
WI-38 = experiment: Selectivity index, ratio of IC50 for human WI38 cells to IC50 for human TK10 cells; format: functional
Plasmodium falciparum [9] = experiment: Antiplasmodial activity against chloroquine-resistant asexual erythrocyte stage form Plasmodium falciparum Dd2 measured after 48 hrs by pLDH assay; format: functional; details: Dd2, 48 h
[10] = Resistance index, ratio of IC50 for chloroquine-resistant asexual erythrocyte stage form Plasmodium falciparum Dd2 to IC50 for chloroquine-sensitive asexual erythrocyte stage form Plasmodium falciparum NF54; format: functional
[11] = Cytotoxicity against CHO cells assessed as reduction in cell viability measured after 48 hrs by MTT assay; format: toxicity, cell-based, Cricetulus griseus; details: Chinese hamster
[12] = Cytotoxicity against human WI38 cells assessed as reduction in cell viability measured after 48 hrs by SRB assay; format: toxicity, cell-based, WI-38
MCF7 = experiment: Selectivity index, ratio of IC50 for human WI38 cells to IC50 for human MCF7 cells; format: functional
[13] = Selectivity index, ratio of IC50 for human MCF7 cells to IC50 for chloroquine-resistant asexual erythrocyte stage form Plasmodium falciparum Dd2; format: functional
[14] = Growth inhibition of human MCF7 cells measured after 24 hrs by SRB assay; format: functional, cell-based; details: MCF7, 24 h
CHO [15] = experiment: Selectivity index, ratio of IC50 for CHO cells to IC50 for human TK10 cells; format: functional
Plasmodium falciparum [16] = experiment: Antiplasmodial activity against chloroquine-sensitive asexual erythrocyte stage form Plasmodium falciparum NF54 measured after 48 hrs by pLDH assay; format: functional; details: NF54, 48 h
[17] = Selectivity index, ratio of IC50 for human WI38 cells to IC50 for chloroquine-sensitive asexual erythrocyte stage form Plasmodium falciparum NF54; format: toxicity, cell-based, WI-38; details: read-out: Ratio IC50
[18] = Thermal stability of the compound assessed as onset of decomposition temperature by thermogravimetric analysis; format: physicochemical
[19] = Thermal stability of the compound assessed as transition temperature by differential scanning calorimetry; format: physicochemical
[20] = Safety index, ratio of compound IC50 to emetine IC50 for human WI38 cells; format: ADME, cell-based, WI-38; details: read-out: Ratio IC50
[21] = Safety index, ratio of compound IC50 to emetine IC50 for CHO cells; format: ADME, cell-based, Cricetulus griseus; details: Chinese hamster, read-out: Ratio IC50
[22] = Thermal stability of the compound assessed as endotherm temperature by differential scanning calorimetry; format: physicochemical

Row | Compound | selectivity ratio [1] | Ratio IC50 [2] | Ratio IC50 (UACC-62) | IC50 [3] [µM] | Ratio IC50 [4] | Ratio IC50 (CHO [5]) | Tm [6] [°C] | Ratio IC50 (CHO [7]) | IC50 [8] [µM] | Ratio IC50 (WI-38) | IC50 (Plasmodium falciparum [9]) [µM] | Ratio IC50 [10] | IC50 at 48 h [11] [µM] | IC50 at 48 h [12] [µM] | Ratio IC50 (MCF7) | IC50 [14] [µM] | Ratio IC50 (CHO [15]) | IC50 (Plasmodium falciparum [16]) [µM] | selectivity ratio [17] | T [18] [°C] | other results
1 | C[C@@H]1CC[C@H]2C(C)(COC(=O)c3ccc(F)cc3)O[C@@H]3O[C@]4(C)CC[C@@H]1[C@]32OO4 (stereo partly specified) | 27000 | 1846 | >8 | 41.7 | 6415 | >8 | 171.9 | >40 | 12 | >2 | 0.0044 | 1.2 | > 100 | > 100 | >40 | 2.5 | >2 | 0.0037 | > 27000 | – | Ratio IC50 [13]: 385
2 | C[C@@H]1CC[C@H]2C(C)(COC(=O)c3ccc([N+](=O)[O-])cc3)O[C@@H]3O[C@]4(C)CC[C@@H]1[C@]32OO4 (stereo partly specified) | > 14900 | 17077 | – | 56 | 21539 | – | 172.4 | >2 | > 100 | >2 | 0.0026 | 0.4 | > 100 | > 100 | >2 | 44.4 | >2 | 0.0067 | > 14900 | 220 | T [19]: 110 °C
3 | C[C@@H]1CC[C@H]2C(C)(COC(=O)[C@@H]3CCCN3C(=O)C(F)(F)F)O[C@@H]3O[C@]4(C)CC[C@@H]1[C@]32OO4 (stereo partly specified) | 12300 | 385 | 11 | 13 | 1667 | 32.4 | 172.2 | 33.5 | 3 | 2 | 0.0078 | 1 | 97.1 | 31.6 | 11 | 2.9 | 7.5 | 0.0079 | 4000 | 126 | selectivity ratio [20]: ≤ 600; selectivity ratio [21]: ≤ 600; Ratio IC50 [13]: 372; T [19]: 116 °C
4 | CC(=O)OCC1(C)O[C@@H]2O[C@]3(C)CC[C@H]4[C@H](C)CC[C@@H]1[C@@]24OO3 (stereo partly specified) | > 8920 | – | – | > 100 | – | – | 171.2 | – | > 100 | – | 0.0126 | 1.1 | > 100 | > 100 | – | > 100 | – | 0.0112 | > 8920 | 164 | T [22]: 90 °C
